Experimental data as given in ChEMBL document CHEMBL3817741, “Synthesis, cytotoxic and urease inhibitory activities of some novel isatin-derived bis-Schiff bases and their copper(ii) complexes” (Medchemcomm, 2016).
pIC50: −log10 of the molar value.

Legend:
[1] = target: Urease (Canavalia ensiformis) (UniProt P07374); assay: Inhibition of Jack bean urease assessed as production of ammonia at 10 mM after 30 mins by indophenol method
NCI-H157 = assay: Antiproliferative activity against human NCI-H157 cells assessed as cell growth inhibition after 48 hrs by SRB assay; type: functional, cell-based; settings: NCI-H157, 48 h
[2] = Antiproliferative activity against African green monkey Vero cells assessed as reduction in cell viability at 100 uM after 48 hrs by SRB assay; type: cell-based; settings: chlorocebus sabaeus
Urease = Urease (Canavalia ensiformis, UniProt P07374); assay: Inhibition of Jack bean urease assessed as production of ammonia after 30 mins by indophenol method
Urease, sequence (P07374 whole entry): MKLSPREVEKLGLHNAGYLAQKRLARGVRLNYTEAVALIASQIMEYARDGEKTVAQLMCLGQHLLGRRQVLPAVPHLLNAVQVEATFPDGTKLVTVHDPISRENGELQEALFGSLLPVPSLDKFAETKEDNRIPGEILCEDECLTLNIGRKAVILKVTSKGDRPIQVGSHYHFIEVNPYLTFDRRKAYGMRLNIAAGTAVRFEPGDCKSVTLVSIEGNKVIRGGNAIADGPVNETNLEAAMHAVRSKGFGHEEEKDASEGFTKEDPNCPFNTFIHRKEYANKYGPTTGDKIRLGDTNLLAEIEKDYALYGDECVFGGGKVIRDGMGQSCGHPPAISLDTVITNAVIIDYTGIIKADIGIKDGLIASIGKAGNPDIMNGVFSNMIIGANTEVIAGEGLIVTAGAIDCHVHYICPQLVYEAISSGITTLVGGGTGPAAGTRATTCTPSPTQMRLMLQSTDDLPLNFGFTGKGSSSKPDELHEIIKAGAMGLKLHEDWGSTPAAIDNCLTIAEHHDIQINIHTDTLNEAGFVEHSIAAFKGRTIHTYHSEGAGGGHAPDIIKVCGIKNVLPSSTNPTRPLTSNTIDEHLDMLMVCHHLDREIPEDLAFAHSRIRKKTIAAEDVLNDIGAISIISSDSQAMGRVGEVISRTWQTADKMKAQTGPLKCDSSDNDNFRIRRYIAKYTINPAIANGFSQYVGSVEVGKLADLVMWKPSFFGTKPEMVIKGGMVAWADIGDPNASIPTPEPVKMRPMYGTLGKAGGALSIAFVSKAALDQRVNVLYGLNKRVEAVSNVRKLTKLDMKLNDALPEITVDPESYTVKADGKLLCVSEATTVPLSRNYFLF

Urease (Canavalia ensiformis), sequence (P07374 whole entry, looked up): as the sequence (P07374 whole entry) above

Row | SMILES | inhibition [1] | pIC50 (NCI-H157) | inhibition at 48 h, 100 µM [2] | pIC50 (Urease)
1 | Cc1ccc(/N=C2\C(=O)Nc3ccc(Br)cc32)cc1/N=C1\C(=O)Nc2ccc(Br)cc21 | > 50% | 5.63 | 18.7% | 7.40
2 | Cc1ccc(/N=C2\C(=O)Nc3ccc(Cl)cc32)cc1/N=C1\C(=O)Nc2ccc(Cl)cc21 | > 50% | 5.59 | 18.5% | 6.96
3 | Cc1ccc(/N=C2\C(=O)Nc3ccccc32)cc1/N=C1\C(=O)Nc2ccccc21 | > 50% | 5.42 | 23.6% | 5.94
4 | CC[C@]1(O)C[C@H]2CN(CCc3c([nH]c4ccccc34)[C@@](C(=O)OC)(c3cc4c(cc3OC)N(C=O)[C@H]3[C@@](O)(C(=O)OC)[C@H](OC(C)=O)[C@]5(CC)C=CCN6CC[C@]43[C@@H]65)C2)C1 [VINCRISTINE] |  |  | 16.8% | 
5 | Cc1ccc2c(c1)/C(=N/c1ccc(C)c(/N=C3\C(=O)Nc4ccc(C)cc43)c1)C(=O)N2 | > 50% | 5.52 | 13.4% | 6.47
6 | Cc1ccc(/N=C2\C(=O)Nc3ccc(S(=O)(=O)O)cc32)cc1/N=C1\C(=O)Nc2ccc(S(=O)(=O)O)cc21 | > 50% | 5.41 | 11.7% | 4.60
7 | Cc1ccc(/N=C2\C(=O)Nc3ccc([N+](=O)[O-])cc32)cc1/N=C1\C(=O)Nc2ccc([N+](=O)[O-])cc21 | > 50% | 5.43 | 10.9% | 5.23
8 | Cc1ccc(/N=C2\C(=O)Nc3ccc(F)cc32)cc1/N=C1\C(=O)Nc2ccc(F)cc21 | > 50% | 5.52 | 22.1% | 5.78
